Results from US12031087B2, “Oxygenated solvents for improved production of oil and gas” (Board of Regents, The University of Texas System, priority 2019, dated 2024).
Where two headings read alike, the source gives them in different places.

Tests used:
[1] = 347 K
From the text: Contact Angle Experiments. […] The procedure largely follows that of Example 1, but as explained below, a change to the previous procedure was necessary because it was not possible to continuously monitor oil droplets on the calcite surface with the surfactant solution.
Before the contact angle measurement, the chemical solution and RB were separately degasified at elevated temperatures. Then, oil-aged calcite pieces were placed in RB. Oil droplets were placed on the bottom surface of a calcite piece in the RB glass chamber.
The calcite piece was continued to be placed in the surfactant solution and taken out after 1 day. Then, the calcite piece was rinsed with RB and placed in RB with no surfactant. […] A photo of the oil droplet was taken then. The contact angles of both sides of each oil droplet were measured using onscreen protractor software. An average contact angle and standard deviation were then calculated.

[2] = Coreflooding of fractured cores, vertical (Example 2)
Protocol: Experimental Procedure for Coreflooding. […] The Indiana limestone cores have the common dimensions with a diameter of 0.0254 m and a length of 0.127 m. The cores were saturated with RB first and then oil, during which the core properties were measured, such as porosity, permeability, and water and oil saturations.
It includes an accumulator for crude oil, a pump, a Hassler-type core holder, a hydraulic manual pump to maintain the overburden pressure, a differential pressure gauge, cylinders, and an oven. After a core was placed in the core holder, oil was injected into the cores at 100 cm^3/h and 347 K until no water production was observed.
An artificial fracture was created along the longitudinal axis using an electric saw for each core (FIG. 20). By following the procedure of Mejia, Teflon spacers with 0.001 m in width and 0.127 m in length were placed along two edges of the fracture to maintain a fracture aperture. Then, the core halves were carefully put together with the Teflon spacers in the fracture, wrapped with a Teflon tube, and placed inside a vertically oriented coreholder.
FIG. 21 provides a schematic of the experimental setup for coreflooding. It consists of accumulators for crude oil, RB, and chemical solution (3-pentanone or surfactant), a pump, a Hassler-type core holder, a hydraulic manual pump to maintain the overburden pressure, a differential pressure gauge, cylinders, and an oven. […] After a fractured core was placed in the coreholder, the oven temperature was increased to reservoir temperature (347 K). Then, the core was flooded with crude oil to remove any gas inside the fracture and measure the fracture permeability using the flow rate of 900 cm^3/h. The overburden pressure was adjusted so that all cores used in this research had similar fracture apertures and fracture permeabilities.
Fracture permeabilities were calculated. The equation for flow between parallel plates b=(3πdke)^1/3 was used to estimate a fracture aperture, where b is the fracture aperture, d is the core diameter, and ke is the effective oil permeability of the fractured core. […] Af and Am are cross-sectional areas of the fracture and matrix, respectively. kf and km are permeabilities of the fracture and matrix, respectively.
The initial RB stage was at 6 cm^3/h for 1.5 pore volumes injected (PVI), then at 0.05 cm^3/h for 0.3-0.4 PVI, and at 6 cm^3/h until there was no oil production. After that, a chemical slug (3-pentanone or surfactant) was injected at 0.6 cm^3/h for 1.6 PVI. Finally, the chase RB was injected at 0.6 cm^3/h. […] However, it was terminated after 1.2 PVI of the chase RB for core 1 because of operational constraints.
The coreflood effluent was collected in plastic graduating cylinders at room temperature. To correct the oil recovery factor for 3-pentanone solubility in oil, the 3-pentanone concentration in recovered oil was measured by the proton nuclear magnetic resonance (H NMR) method for the chemical slug and chase RB flooding periods for core 1.

[3] = From the text: Experimental Procedure for Flooding/Soaking Experiments. […] This section describes the preparation of the tight cores and the flooding/soaking experiments. Properties of the tight carbonate cores and the injection scheme for two flooding/soaking experiments are also summarized in this section.
Rocherons carbonate cores (Kocurek Industries Inc.) were used in this research. […] In this research, 11 core pieces were saturated only by crude oil and 5 core pieces were saturated by both crude oil and reservoir brine at room temperature. To saturate core pieces by crude oil, they were placed in an accumulator, which was evacuated for at least 24 hours. […] The weights of the core pieces were measured before and after saturating by crude oil to quantify the oil volume in the cores. The volume so determined was assumed to be the accessible pore volume (PV) of the core. […] It consists of an accumulator for reservoir brine, a pump, a Hassler-type core-holder, a hydraulic manual pump to maintain the overburden pressure and cylinders. Before brine injection, the inlet tubing of the coreholder was evacuated for 10 seconds to prevent injecting air into the core. The core was flooded by brine until the injected brine volume exceeded the accessible pore volume. […] The weights of the core pieces were measured after they were re-saturated by the crude oil. The brine and oil volumes in the core pieces were calculated by the following equations. […] Then, oil and brine saturations in each core piece can be calculated. Table 19 presents the properties of the core pieces, including the length of each core piece, accessible pore volume, and oil and brine saturations. Core pieces #1-#5 in Table 19 were saturated by both brine and oil.
An artificial fracture was created along the longitudinal axis using an electric saw for each core piece. Teflon spacers with 0.001 m in width were placed along two edges of the fracture to maintain a fracture aperture. Then, the core halves were carefully put together with the Teflon spacers placed in the fracture, wrapped with a Teflon tube and placed inside a horizontally-oriented core holder, with the fracture vertically-oriented. Teflon spacer was not placed in the space between core pieces. […] When assembling the core pieces for Case 1, core pieces were put so that oil saturation changes monotonically. Qualitatively, the longitudinal fracture served as a propped fracture and the fractures normal to it served as unpropped fractures in terms of hydraulic paths.
FIG. 59 presents a schematic of the experimental set-up for the flooding/soaking experiment. […] Then, the system was evacuated for 10 seconds to remove any air trapped in the fractures. After that, the core was flooded with crude oil to measure the fracture permeability by using the flow rate of 500 cm^3/hr under certain overburden pressure. Table 20 provides the pressure drops along the cores at a certain flow rate and the overburden pressures used.
During flooding/soaking experiments, the RB was injected at 6 ml/hr until no more oil production was observed. Then, the surfactant solution was injected at 6 ml/hr to fill the volume from the inlet of the coreholder until the outlet line of the coreholder, which was followed by a 10-hour soaking period. After that, the surfactant solution was injected at 6 ml/hr to chase the fluid in the system and to recover the produced oil during the first soaking period. The system was then shut-in for a second 10-hour soaking period. RB was then injected at 6 ml/hr to chase the fluid in the system and to recover the produced oil during the second soaking period. Finally, the system was shut-in for a 12-hour soaking period, followed by RB injection to chase the fluid in the system until no oil production.
The effluent was collected in plastic graduating cylinders at room temperature.

[4] = 24 h after immersion in 1.0 wt % surfactant solution

2-ethylhexanol-4 propylene oxide-15 ethylene oxide [2-EH-4PO-15EO]
Average contact angle [1, 4]: 47.1 deg
contact angle, left side [1, 4]: 47.5 deg
contact angle, right side [1, 4]: 46.8 deg
Average contact angle ([1]; at the initialization): 134.1 deg
contact angle, left side ([1]; at the initialization): 133.2 deg
contact angle, right side ([1]; at the initialization): 135.1 deg
incremental oil recovery factor, chemical slug stage ([2]; 1.6 PVI slug after first RB flood, 1.1 wt % 3-pentanone in RB (core 1) or 1.0 wt % 2-EH-4PO-15EO in RB (core 2), 347 K): 23.6%
incremental oil recovery factor, chase RB flooding stage ([2]; 7.0 PVI chase RB, core 2, 347 K): 23.7%
total improved oil recovery ([2]; chemical slug + chase RB stages (1.2 PVI chase core 1; 7.0 PVI chase core 2), 347 K): 47.3%
total improved oil recovery ([3]; Case 1 (with initial water)): 76.11 % OOIM
Cumulative improved oil recovery factor by surfactant solution ([3]; Case 1 (with initial water), after the 1st soaking period): 0.3348
Cumulative improved oil recovery factor by surfactant solution ([3]; Case 1 (with initial water), after the 2nd soaking period): 0.6303
Cumulative improved oil recovery factor by surfactant solution ([3]; Case 1 (with initial water), after the 3rd soaking period): 0.7611
incremental oil recovery ([3]; Case 1, after the 1st soaking period): 33.48 % OOIM
incremental oil recovery ([3]; Case 1, after the 2nd soaking period): 29.55 % OOIM
incremental oil recovery ([3]; Case 1, after the 3rd soaking period): 13.09 % OOIM
total improved oil recovery ([3]; Case 2 (without initial water)): 78.42 % OOIM
Cumulative improved oil recovery factor by surfactant solution ([3]; Case 2 (without initial water), after the 1st soaking period): 0.3555
Cumulative improved oil recovery factor by surfactant solution ([3]; Case 2 (without initial water), after the 2nd soaking period): 0.6647
Cumulative improved oil recovery factor by surfactant solution ([3]; Case 2 (without initial water), after the 3rd soaking period): 0.7842
incremental oil recovery ([3]; Case 2, after the 1st soaking period): 35.55 % OOIM
incremental oil recovery ([3]; Case 2, after the 2nd soaking period): 30.92 % OOIM
incremental oil recovery ([3]; Case 2, after the 3rd soaking period): 11.95 % OOIM
